Results published in the supplement of paper PMC10307832.

compound: C1CCC(CC1)N(CCNCCC2=C3C(=C(C=C2)O)NC(=O)CO3)C(=O)CCNCCC4=CC(=C(C=C4)Cl)Cl [AZ505] + CC(C)C[C@H](NC(=O)[C@H](Cc1ccccc1)NC(=O)c1cnccn1)B(O)O [Bortezomib] (partner 0.002 µM); experiment: relative viability (nuclei count vs DMSO), 5 days (fraction); higher = more cells survive; conditions: first compound 0.08 µM
How it was run: (§1)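 One day after seeding in 1536-well plates, lung cancer cell lines were dosed by pin tool. Dosing was either single-drug or a fixed anchor-drug dose plus five library-drug doses (not always all listed) in √10 steps. After 5 days, nuclei were stained in one fix-and-stain step and counted on 4× images, and relative viability is the nuclei count of treated wells over that of vehicle wells, given as the median of duplicate plates.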

Cell Line	relative viability
BEN	0.744
HARA	1.04
HCC-78	0.619
NCI-H322M	1.29
LCLC-97TM1	0.579
NCI-H2009	0.982
A-427	0.928
NCI-H441	0.751
NCI-H661	0.798
NCI-H1734	0.78
NCI-H460	0.945
SW 1573	0.907
201T	1.09
NCI-H1915	0.86
HCC-827	0.92
LXF-289	0.875
NCI-H23	0.674
NCI-H647	1.07
NCI-H1651	0.882
EPLC-272H	0.769
NCI-H1792	0.785
NCI-H1355	1.13
NCI-H3122	1.01
NCI-H1437	0.551
NCI-H1755	0.952
NCI-H2023	0.845
HCC-15	0.973

same assay, conditions: first compound 0.253 µM

Cell Line	relative viability
NCI-H2405	0.802
HOP-62	0.82
HCC-44	0.883
LU99A	1.08
BEN	0.806
HARA	1.01
HCC-78	0.72
NCI-H322M	1.15
LCLC-97TM1	0.461
NCI-H2009	0.929
A-427	0.978
NCI-H441	0.636
NCI-H661	1.01
NCI-H1734	0.978
NCI-H460	1.24
NCI-H2347	0.801
SW 1573	1.08
201T	1.11
NCI-H1915	0.968
HCC-827	0.957
NCI-H647	1.13
NCI-H1651	0.956
EPLC-272H	1.04
NCI-H1792	1.07
NCI-H1355	1.19
NCI-H3122	1.02
NCI-H1437	0.453
NCI-H1755	0.988
NCI-H2023	0.872
HCC-15	1.08

same assay, conditions: first compound 0.8 µM

Cell Line	relative viability
NCI-H2405	0.81
HOP-62	1.01
HCC-44	0.879
LU99A	1.05
BEN	0.809
HARA	0.914
HCC-78	0.557
NCI-H322M	1.39
LCLC-97TM1	0.461
NCI-H2009	1.04
A-427	1.03
NCI-H441	0.598
NCI-H661	0.716
NCI-H1734	0.976
NCI-H460	1.04
NCI-H2347	0.75

Cell Line	relative viability
SW 1573	0.939
201T	1.06
NCI-H1915	0.861
HCC-827	1.01
LXF-289	1.02
NCI-H23	1.21
NCI-H647	1
NCI-H1651	0.909
EPLC-272H	0.85
NCI-H1792	0.927
NCI-H1355	1.16
NCI-H3122	1.07
NCI-H1437	0.49
NCI-H1755	0.949
NCI-H2023	0.911
HCC-15	1.01

same assay, conditions: first compound 2.53 µM

Cell Line	relative viability
NCI-H2405	0.859
HOP-62	0.839
HCC-44	0.915
LU99A	1.18
BEN	0.861
HARA	1.03
HCC-78	0.546
NCI-H322M	1.22
NCI-H2009	0.657
A-427	0.917
NCI-H441	0.432
NCI-H661	0.787
NCI-H1734	0.936
NCI-H460	1.09
SW 1573	1.12
201T	1.11
NCI-H1915	0.87
HCC-827	1
LXF-289	0.975
NCI-H23	0.956
NCI-H647	1.19
NCI-H1651	0.927
EPLC-272H	0.721
NCI-H1792	0.94
NCI-H1355	1.25
NCI-H3122	1.04
NCI-H1437	0.405
NCI-H1755	0.961
NCI-H2023	1.18
HCC-15	0.989

same assay, conditions: first compound 8 µM

Cell Line	relative viability
NCI-H2405	0.925
HOP-62	0.945
HCC-44	0.86
LU99A	1.18
BEN	0.842
HARA	0.916
HCC-78	0.587
NCI-H322M	1.34
LCLC-97TM1	1.08
NCI-H2009	0.901
A-427	0.997
NCI-H441	0.621
NCI-H661	0.732
NCI-H1734	0.861
NCI-H460	1.11
NCI-H2347	0.681

Cell Line	relative viability
SW 1573	1.08
201T	1.07
NCI-H1915	0.978
HCC-827	1.1
LXF-289	1.02
NCI-H23	1.07
NCI-H647	1.01
NCI-H1651	1.03
EPLC-272H	0.904
NCI-H1792	1
NCI-H1355	1.16
NCI-H3122	1.03
NCI-H1437	0.743
NCI-H1755	0.93
NCI-H2023	1.01
HCC-15	1.02

compound: Cn1c(=O)n(-c2ccc(C(C)(C)C#N)cc2)c2c3cc(-c4cnc5ccccc5c4)ccc3ncc21 [Dactolisib] + C[C@@H](Oc1cc(-c2cnn(C3CCNCC3)c2)cnc1N)c1c(Cl)ccc(F)c1Cl [Crizotinib] (partner 1 µM); experiment: as above; conditions: first compound 0.002 µM
How it was run: as §1

Cell Line	relative viability
NCI-H2405	0.758
HOP-62	1.06
HCC-44	0.879
LU99A	0.548
BEN	0.785
HARA	1.12
HCC-78	0.316
NCI-H322M	0.827
LCLC-97TM1	0.509
NCI-H2009	1.01
A-427	0.93
NCI-H441	0.923
NCI-H661	0.987
NCI-H1734	0.634
NCI-H460	1.09
NCI-H2347	0.836

Cell Line	relative viability
SW 1573	0.989
201T	1.03
NCI-H1915	0.889
HCC-827	0.978
LXF-289	0.822
NCI-H23	0.455
NCI-H647	1.21
NCI-H1651	0.861
EPLC-272H	0.949
NCI-H1792	1.15
NCI-H1355	1.18
NCI-H3122	0.284
NCI-H1437	1.03
NCI-H1755	0.931
NCI-H2023	0.599
HCC-15	0.826

same assay, conditions: first compound 0.006325 µM

Cell Line	relative viability
NCI-H2405	0.867
HOP-62	1.01
HCC-44	0.763
LU99A	0.446
BEN	0.77
HARA	1.02
HCC-78	0.331
NCI-H322M	1.02
LCLC-97TM1	0.373
NCI-H2009	1.05
A-427	0.856
NCI-H441	0.64
NCI-H661	0.979
NCI-H1734	0.578
NCI-H460	0.835
NCI-H2347	0.619

Cell Line	relative viability
SW 1573	0.712
201T	1.04
NCI-H1915	0.903
HCC-827	0.897
LXF-289	0.779
NCI-H23	0.408
NCI-H647	0.848
NCI-H1651	0.891
EPLC-272H	0.564
NCI-H1792	0.971
NCI-H1355	1.09
NCI-H3122	0.297
NCI-H1437	0.904
NCI-H1755	0.802
NCI-H2023	0.576
HCC-15	0.767

same assay, conditions: first compound 0.02 µM

Cell Line	relative viability
NCI-H2405	0.849
HOP-62	0.923
HCC-44	0.816
LU99A	0.335
BEN	0.859
HARA	1.04
HCC-78	0.285
NCI-H322M	0.863
LCLC-97TM1	0.277
NCI-H2009	1.02
A-427	0.844
NCI-H441	0.554
NCI-H661	1.14
NCI-H1734	0.454
NCI-H460	0.513
NCI-H2347	0.613

Cell Line	relative viability
SW 1573	0.66
201T	0.998
NCI-H1915	0.916
HCC-827	0.992
LXF-289	0.896
NCI-H23	0.614
NCI-H647	0.5
NCI-H1651	0.777
EPLC-272H	0.647
NCI-H1792	0.921
NCI-H1355	0.99
NCI-H3122	0.228
NCI-H1437	0.902
NCI-H1755	0.823
NCI-H2023	0.437
HCC-15	0.788

same assay, conditions: first compound 0.06325 µM

Cell Line	relative viability
NCI-H2405	0.541
HOP-62	0.505
HCC-44	0.446
LU99A	0.272
BEN	0.467
HARA	1.01
HCC-78	0.266
NCI-H322M	0.684
LCLC-97TM1	0.149
NCI-H2009	0.986
A-427	0.615
NCI-H441	0.496
NCI-H661	0.779
NCI-H1734	0.333
NCI-H460	0.136
NCI-H2347	0.46

Cell Line	relative viability
SW 1573	0.572
201T	0.977
NCI-H1915	0.713
HCC-827	0.809
LXF-289	0.942
NCI-H23	0.357
NCI-H647	0.133
NCI-H1651	0.679
EPLC-272H	0.494
NCI-H1792	0.601
NCI-H1355	0.488
NCI-H3122	0.213
NCI-H1437	0.699
NCI-H1755	0.596
NCI-H2023	0.176
HCC-15	0.556

same assay, conditions: first compound 0.2 µM

Cell Line	relative viability
NCI-H2405	0.38
HOP-62	0.472
HCC-44	0.414
LU99A	0.231
BEN	0.296
HARA	0.421
HCC-78	0.222
NCI-H322M	0.641
LCLC-97TM1	0.145
NCI-H2009	0.566
A-427	0.48
NCI-H441	0.271
NCI-H661	0.613
NCI-H1734	0.164
NCI-H460	0.0929
NCI-H2347	0.464

Cell Line	relative viability
SW 1573	0.317
201T	0.913
NCI-H1915	0.529
HCC-827	0.506
LXF-289	0.708
NCI-H23	0.257
NCI-H647	0.124
NCI-H1651	0.57
EPLC-272H	0.483
NCI-H1792	0.294
NCI-H1355	0.326
NCI-H3122	0.217
NCI-H1437	0.865
NCI-H1755	0.438
NCI-H2023	0.129
HCC-15	0.366
